The source of these data is US20020032316A1, “Hapten-carrier conjugates for use in drug-abuse therapy and methods for preparation of same” (priority 1995, published 2002).

Read-outs that look alike come from different tables or passages of the source. Bounds are passed on as bounds.

For data set [1] the following is noted: cited from earlier work.
In data set [2] the test system is antibodies in the rat sera binding to PS-5.4 HEL. The following applies: sera of rats immunized with cocaine-rCTB conjugate.
Data set [3] deals with anti-cocaine antisera. Put plainly: Specificity competition ELISA: drugs inhibiting binding of antibodies to cocaine-HEL. The following applies: pool of antisera of mice immunized with cocaine-CTB PS-5.53; varying concentrations.
The test system of data set [4] is mice. The following applies: for total levels of cocaine in the brains of control mice: mouse, in vivo.
A short description of data set [5]: Cocaine LD50 and time-to-death in immunized and naive mice. As to conditions: BALB/c, mouse, in vivo.
Method: In these experiments, cocaine-immunized and control carrier-immunized mice are injected i.v. with cocaine at doses around the previously defined LD50. Ten mice are used at each point, and the data is analyzed using a Cochran-Mantel-Haenzel Chi-squared test.
In addition, a failure time model is used to analyze the time-to-death induced by cocaine. The extent to which the anti-cocaine antibodies increase both (a) the dose of cocaine required for lethality and (b) the time-to-death are measures of efficacy in this model. These provide a rapid and rigorous test of the in vivo efficacy of the antibodies.
The efficacy of therapeutic vaccination against cocaine was assessed by determining the lethal dose of cocaine (LD50) in immunized and naive animals. […] Each of the mice was bled at day 34 and serum antibody titers and competition with cocaine were assessed. […] For the LD50 experiment, 4-6 mice were used per group and each group was carefully matched for antibody titer and apparent affinity for free cocaine.
In data set [6] the test system is rats. In words: Discrimination of cocaine from saline, 2-lever procedure. The data set is classed as in vivo. The following applies: Rattus norvegicus, ip; rats trained on 10 mg/kg cocaine i.p., cumulative dosing; read-out: ED50±95% C.I. for cocaine-appropriate responses. An excerpt: After cocaine injections are given, the animals are required to press one of the levers (drug-appropriate lever) 10 times (FR 10) to obtain a food pellet; upon saline injections, they are required to press the other lever (saline-appropriate lever) 10 times to obtain a food pellet. When animals have learned to discriminate cocaine from saline, at least 90% of the total responses are made on the appropriate lever for several consecutive days. In order to incorporate a cumulative dosing procedure during later substitution test sessions, training sessions are made up of multiple components, each lasting for 10 min or until 10 FRs are completed, whichever occurred first.
Following training, substitution test sessions with different doses of cocaine (0.3-17.8 mg/kg) are conducted twice weekly, with training sessions on intervening days. Drug substitution test sessions consisted of four 10 min components, each preceded by a 15 min time-out period. During substitution tests, completion of 10 responses on either lever produce a food pellet. Incremental doses of cocaine are injected at the beginning of each of the 4 time-out periods. Overlapping ranges of cumulative doses are studied on different test days, permitting a seven-point cumulative dose-response curve to be determined in a single week. […]

For data set [7] the following is noted: cited from earlier work; for peak plasma concentration: in vivo; for plasma half life: Henningfield (1995).
The subject of data set [8] is antibodies in the sera binding to PS-55 HEL. In words: Competition ELISA with free nicotine or cotinine. Set-up: species or system mouse. As to conditions: sera of mice injected with PS-55 BSA. The method, then: To determine whether the induced antibodies are capable of recognizing the free nicotine molecule, a competition ELISA was performed. In this assay, free nicotine competes with PS-55 HEL coated to ELISA plates for the binding of antibodies in the sera. If the antibodies that have a high affinity for nicotine comprise most of the antibodies binding to the PS-55 HEL, then low concentrations of nicotine are capable of effectively inhibiting the antibody binding. For 3 out of 4 mice described above which were injected with PS-55 BSA, antibody binding to PS-55 HEL was inhibited by free nicotine (FIG. 25). Note that the presence of antibody specific for the conjugate alone would not be expected to interfere with the action of the anti-nicotine antibody.

The conditions of data set [9]: in vivo; cited from earlier work.
For data set [10] the following is noted: pre-incubation with 50-fold excess unlabeled nicotine.
Method: Immune sera from the above experiment was incubated with [^3H]-nicotine and protein-G-conjugated Sepharose beads (Gammabind-G Sepharose, Pharmacia), which bind IgG in the sera samples. The antibody-bound [^3H]-nicotine was isolated by centrifugation of the beads and was detected by scintillation counting of the beads.
Data set [11] can be described thus: HPLC analysis of methyl ester hydrolysis of succinylated norcocaine. As to conditions: 25° C.
The subject of data set [12] is eukaryotic cells expressing ganglioside GM1. It is filed as cell-based.

As for `C[C@]12N[C@H](Cc3ccccc31)c1ccccc12` [MK-801], the “increase of cocaine LD50” value in [1] (alone) is 1.3 fold; in [1] (combined with propanolol), 1.4 fold.

For `CN1[C@H]2CC[C@@H]1[C@@H](C(=O)O)[C@@H](OC(=O)c1ccccc1)C2` [benzoylecgonine, 3β-(Benzoyloxy)-8-methyl-8-azabicyclo[3.2.1]octane-2β-carboxylic acid], in [2], the “competition of rat sera” value is “none of the sera tested are able to be competed by benzoylecgonine”. In data set [3], the “inhibition of binding of antibodies to cocaine-HEL” value was “at high concentrations”.

With `COC(=O)[C@H]1[C@@H](OC(=O)c2ccccc2)C[C@@H]2CC[C@H]1N2C` [cocaine, 3β-(Benzoyloxy)-8-methyl-8-azabicyclo[3.2.1]octane-2β-carboxylic acid methyl ester], the “time of peak cocaine levels” value is 2 to 5 min in data set [4] (after intranasal administration) and 0.25 min in data set [4] (after intravenous injection). Moreover, the “total levels of cocaine in the brains of control mice” value in [4] is recorded as 1538 ng/g; in data set [4] (iv), 2260 ng/g. Also, the LD50 came out at 20 mg/kg in data set [5] (ip) and 3 mg/kg in data set [5] (iv). In addition, the ED50 in data set [6] is 2.14 ± 0.2 mg/kg. Besides, the “published peak plasma levels” value in data set [7] (in addicts, Ambre 1991, Cone 1995, Cone 1989) is 0.3 to 1.5 µg/mL. Besides, the peak plasma concentration in [7] is 0.3 to 1 µg/mL.

For the molecule `CN1C(=O)CCC1c1cccnc1` (stereo not shown) [cotinine, N-Methyl-2-(3-pyridyl)-5-pyrrolidone], the “competition for antibodies in the sera” value in [8] is reported as “cannot compete with antibodies in any of the sera except at very high concentrations”. The plasma half life in data set [7] is 19 h.

As to `CNCCCN1c2ccccc2CCc2ccccc21` [desipramine], the “cocaine abstinence rate following treatment” value in data set [9] is recorded as at most 70%.

Consider `CN1CCCC1c1cccnc1` (stereo not shown) [nicotine, 1-Methyl-2-(3-pyridyl)pyrrolidine], for which, in data set [7], the plasma half life result was “approximately two” and the peak plasma concentration is 0.025 to 0.05 µg/mL. In addition, the “inhibition of [^3H]-nicotine binding to antibodies” value in data set [10] is recorded as “completely inhibited the binding”.

Take `COC(=O)[C@H]1[C@@H](OC(=O)c2ccccc2)C[C@@H]2CC[C@H]1N2C(=O)CCC(=O)O` [succinylated norcocaine, 3β-(Benzoyloxy)-8-succinoyl-8-azabicyclo[3.2.1]octane-2β-carboxylic acid methyl ester]: the “time for 5% degradation” value in [11] (pH 6) came to 1.30 years; in data set [11] (pH 8), 10.96 days.

Turning to rCTB, in [12], the “binding to cells (flow cytometry)” value was “bound to eukaryotic cells expressing ganglioside GM1”.
